From the supplement of paper PMC10307832

Key:
Assay in all cases: relative viability (nuclei count vs DMSO), 5 days (fraction); higher = more cells survive
[1] = compound: CCN(CCO)CCCC(C)Nc1ccnc2cc(Cl)ccc12 [Hydroxychloroquine] + CC(=O)c1c(C)c2cnc(Nc3ccc(N4CCNCC4)cn3)nc2n(C2CCCC2)c1=O [Palbociclib] (partner 0.5 µM)
Summary of the method: (§1)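 Relative viability equals treated-well nuclei counts divided by vehicle-well nuclei counts. Counts came from 4× images of lung cancer cell lines grown in 1536-well plates for 5 days after pin-tool dosing on the day after seeding. Dosing used one drug alone or a fixed anchor-drug dose plus five library-drug doses (not always all listed) in √10 steps, and values are medians of duplicate plates.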

[2] = compound: CCN(CCO)CCCC(C)Nc1ccnc2cc(Cl)ccc12 [Hydroxychloroquine] + CS(=O)(=O)N1CCN(Cc2cc3nc(-c4cccc5[nH]ncc45)nc(N4CCOCC4)c3s2)CC1 [Pictilisib] (partner 1 µM)
Summary of the method: as §1

[3] = compound: CCN(CCO)CCCC(C)Nc1ccnc2cc(Cl)ccc12 [Hydroxychloroquine] + N=C(N)NC(=N)NCCc1ccccc1 [Phenformin] (partner 250 µM)
Summary of the method: as §1

[4] = compound: CCN(CCO)CCCC(C)Nc1ccnc2cc(Cl)ccc12 [Hydroxychloroquine] + Nc1ncn([C@H]2C[C@H](O)[C@@H](CO)O2)c(=O)n1 [Decitabine] (partner 2 µM)
Summary of the method: as §1

Row | Cell Line | relative viability ([1]; first compound 0.5 µM) | relative viability ([1]; first compound 1.581 µM) | relative viability ([1]; first compound 5 µM) | relative viability ([1]; first compound 15.81 µM) | relative viability ([1]; first compound 50 µM) | relative viability ([2]; first compound 0.5 µM) | relative viability ([2]; first compound 1.581 µM) | relative viability ([2]; first compound 5 µM) | relative viability ([2]; first compound 15.81 µM) | relative viability ([2]; first compound 50 µM) | relative viability ([3]; first compound 0.5 µM) | relative viability ([3]; first compound 1.581 µM) | relative viability ([3]; first compound 5 µM) | relative viability ([3]; first compound 15.81 µM) | relative viability ([3]; first compound 50 µM) | relative viability ([4]; first compound 0.5 µM) | relative viability ([4]; first compound 1.581 µM) | relative viability ([4]; first compound 5 µM) | relative viability ([4]; first compound 15.81 µM) | relative viability ([4]; first compound 50 µM)
1 | H3255 | 0.335 | 0.32 | 0.303 | 0.318 | 0.312 | 0.513 | 0.517 | 0.462 | 0.474 | 0.507 | 0.332 | 0.368 | 0.326 | 0.356 | 0.313 | 0.612 | 0.536 | 0.593 | 0.718 | 0.592
2 | EPLC-272H | 0.281 | 0.34 | 0.309 | 0.285 | 0.295 | 0.282 | 0.246 | 0.333 | 0.297 | 0.349 | 0.267 | 0.312 | 0.273 | 0.309 | 0.241 | 0.319 | 0.403 | 0.403 | 0.321 | 0.372
3 | RERF-LC-KJ | 0.838 | 1.16 | 1.03 | 1.12 | 1.06 | 0.43 | 0.518 | 0.55 | 0.488 | 0.603 | 0.4 | 0.402 | 0.406 | 0.402 | 0.408 | 0.659 | 0.684 | 0.754 | 0.7 | 0.608
4 | NCI-H1793 | 0.331 | 0.311 | 0.372 | 0.325 | 0.312 | 0.349 | 0.308 | 0.415 | 0.307 | 0.364 | 0.38 | 0.325 | 0.364 | 0.351 | 0.36 | 0.542 | 0.466 | 0.42 | 0.412 | 0.259
5 | EKVX | 0.354 | 0.374 | 0.377 | 0.74 | 0.412 | 0.458 | 0.383 | 0.476 | 0.427 | 0.476 | 0.249 | 0.192 | 0.249 | 0.243 | 0.208 | 0.346 | 0.308 | 0.334 | 0.407 | 0.372
6 | ChaGo-K-1 | 0.967 | 0.942 | 0.912 | 0.975 | 0.989 | 0.873 | 0.506 | 0.383 | 0.662 | 0.64 | 0.509 | 0.542 | 0.438 | 0.501 | 0.522 | 0.515 | 0.545 | 0.538 | 0.496 | 0.518
7 | NCI-H23 | 0.499 | 0.487 | 0.548 | 0.464 | 0.477 | 0.552 | 0.409 | 0.384 | 0.385 | 0.449 | 0.803 | 0.76 | 0.806 | 0.797 | 0.829 | 0.321 | 0.294 | 0.288 | 0.288 | 0.305
8 | EMC-BAC-2 | 0.52 | 0.45 | 0.519 | 0.514 | 0.523 | 0.593 | 0.417 | 0.547 | 0.55 | 0.612 | 0.543 | 0.385 | 0.497 | 0.523 | 0.503 | 1.01 | 0.863 | 0.965 | 0.952 | 0.952
